From US6218400A, “Treatment method using a cGMP-Specific PDE inhibitor” (ICOS Corporation, priority 1995, dated 2001) come the findings set out here.

The target in one assay is human recombinant PDE V (Homo sapiens, UniProt O76074). The assay can be described thus: Inhibitory effect on cGMP-PDE (one-step assay, human recombinant PDE V). It is filed as biochemical. The conditions noted are these: 0.15 μM 8-[H^3]-cGMP, 2% DMSO, 30 minutes. The protocol: cGMP-PDE activity of compounds of the present invention was measured using a one-step assay adapted from Wells at al. (Wells, J. N., Baird, C. E., Wu, Y. J. and Hardman, J. G., Biochim. Biophys. Acta 384, 430 (1975)). The reaction medium contained 50 mM Tris-HCl,pH 7.5, 5 mM Mg-acetate, 250 μg/ml 5'-Nucleotidase, 1 mM EGTA and 0.15 μM 8-[H^3 ]-cGMP. The enzyme used was a human recombinant PDE V (ICOS, Seattle USA).
Compounds of the invention were dissolved in DMSO finally present at 2% in the assay.

Assay [1] concerns Rat aortic smooth muscle cells (RSMC). The assay can be described thus: cGMP level measurements in rat aortic smooth muscle cells (RSMC). The format is cell-based. To be noted: 10 min, cGMP after ANF (100 nM) stimulation for 10 minutes, dose giving half of the stimulation at saturating concentrations. The method, then:
Rat aortic smooth muscle cells (RSMC) prepared according to Chamley et al. in Cell Tissue Res. 177, 503-522 (1977) were used between the 10th and 25th passage at confluence in 24-well culture dishes. Culture media was aspirated and replaced with PBS (0.5 ml) containing the compound tested at the appropriate concentration. After 30 minutes at 37° C., particulates guanylate cyclase was stimulated by addition of ANF (100 nM) for 10 minutes. At the end of incubation, the medium was withdrawn and two extractions were performed by addition of 65% ethanol (0.25 ml). The two ethanolic extracts were pooled and evaporated until dryness, using a Speed-vac system. c-GMP was measured after acetylation by scintillation proximity immunoassay ([…]). The EC50 values are expressed as the dose giving half of the stimulation at saturating concentrations

For assay [2], the system named is conscious spontaneously hypertensive rats (SHRs). The assay can be described thus: Hypotensive effects in conscious spontaneously hypertensive rats. The format is in vivo, rat. The conditions noted are these: AUC from 0 to 5 hours. The protocol:
The hypotensive effects of compounds according to the invention as identified in Table 2 were studied in conscious spontaneously hypertensive rats (SHRs). The compounds were administered orally at a dose of 5 or 10 mg/kg in a mixture of 5% DMF and 95% olive oil, or i.v. at a dose of 10 mg/kg in a mixture of 40% dimethylformamide, 25% tetraglycol, and […]. Blood pressure was measured from a catheter inserted in the carotid artery and recorded for 5 hours after administration. The results are expressed as Area Under the Curve (AUC from 0 to 5 hours, mmHg.hour) of the fall in blood pressure over time.

Consider `O=C1[C@H]2Cc3c([nH]c4ccccc34)[C@H](c3ccc4c(c3)OCO4)N2C(=O)N1Cc1ccccc1` (relative stereo) [1 (cis isomer), Cis-2-benzyl-5-(3,4-methylenedioxyphenyl)-5,6,11,11a-tetrahydro-1H-imidazo [1',5':1,6]pyrido[3,4-b]indole-1,3(2H)-dione], for which the IC50 (in general, the concentration that gives 50% inhibition) at human recombinant PDE V is below 10 nM. The EC50 (commonly the concentration needed to bring the measured effect to its halfway point) in assay [1] was determined as 300 nM. Moreover, the “AUC of the fall in blood pressure over time” value (from here on “AUC of the fall … over time”) in assay [2] (dosed at 5 mg/kg p.o.) is 104 mmHg·h.

Regarding `COc1ccc([C@H]2c3[nH]c4ccccc4c3C[C@@H]3C(=O)N(C4CCCCC4)C(=O)N23)cc1` (relative stereo) [26 (cis isomer), Cis-2-cyclohexyl-5-(4-methoxyphenyl)-5,6,11,11a-tetrahydro-1H-imidazo [1',5':1,6] pyrido[3,4-b]indole-1,3(2H)-dione], the IC50 on human recombinant PDE V came out at 7 nM. In assay [1], this molecule displayed a concentration giving a half-maximal response (EC50) of 300 nM. In addition, the “AUC of the fall … over time” value in assay [2] (dosed at 10 mg/kg i.v.) was 117 mmHg·h.

Take `CCCCN1C(=O)[C@@H]2Cc3c([nH]c4ccccc34)[C@H](c3ccc(OC)cc3)N2C1=O` (relative stereo) [Example 10, Trans-2-butyl-5-(4-methoxyphenyl)-5,6,11,11a-tetrahydro-1H-imidazo [1',5':1,6] pyrido[3,4-b]indole-1,3(2H)-dione]: the EC50 in assay [1] is below 1000 nM. Besides, in assay [2] (dosed at 10 mg/kg i.v.), the “AUC of the fall … over time” value was found to be 147 mmHg·h.

For the molecule `O=C1[C@H]2Cc3c([nH]c4ccccc34)[C@@H](c3ccc4c(c3)OCO4)N2C(=O)N1Cc1ccccc1` [Example 32, (5R,11aR)-2-benzyl-5-(3,4-methylenedioxyphenyl)-5,6,11,11a-tetrahydro-1H-imidazo [1',5':1,6]pyrido[3,4-b]indole-1,3(2H)-dione], on human recombinant PDE V, the IC50 was below 10 nM. For the same molecule, in assay [1], it took 200 nM to reach a half-maximal effect (EC50). For the same molecule, in assay [2] (dosed at 5 mg/kg p.o.), the “AUC of the fall … over time” value worked out at 65 mmHg·h.
